In patent US7718128B2, “Application using non-covalent bond between a cucurbituril derivative and a ligand” (Postech Foundation, priority 2005, dated 2010):

Test system: KB cells (oral carcinoma cells)
Experiment: measurement of degree of cell death by flow cytometry (annexin V-ferrocene derivative / FITC-cucurbituril derivative)
Type: cell-based
Conditions: 0.5 μM (0.3 μg/mL) doxorubicin, 3 days, versus sample not treated
Protocol: After a ferrocene derivative bound to annexin V, which is known as a protein that can selectively bind to surfaces of dead cells, was treated on cells induced to die using an anti-cancer drug, the cells were treated with an FITC-bound cucurbituril derivative, and the degree of cell death was measured through flow cytometry.
2 mL of […] culture solution (containing 10% FCS) and about 10^6 KB cells (oral carcinoma cells) (obtained from the Korean Cell Line Bank (KCLB)) were cultured in two 6-well cell culture dishes at 37° C. in a 5% CO2 condition for 48 hours.
Next, 2 mL of the RPMT-1640 culture solution (containing 10% FCS) in one of the 6-well cell culture dishes was replaced by the same, fresh culture solution, and 2 mL of the RPMT-1640 culture solution in the other 6-well cell culture dish was replaced by 0.5 μM (0.3 μg/mL) of doxorubicin, and the two culture dishes were incubated at 37° C. in a 5% CO2 condition for 3 days.
The culture solution in the two cell culture dishes incubated in (1) was removed. […]
Next, the degree of cell depth in each of the samples was measured through flow cytometry (FACSCalibur, Becton Dickinson Corp., Ex=488 nm, Em=530 nm (for FITC detection).

COc1cccc2c1C(=O)c1c(O)c3c(c(O)c1C2=O)C[C@@](O)(C(=O)CO)C[C@@H]3O[C@H]1C[C@H](N)[C@H](O)[C@H](C)O1 [doxorubicin]
degree of cell death (FITC signal, flow cytometry): most cells in the doxorubicin-treated sample died
